This is an account of results in US7855292B2, “Sulfonamide compounds” (Janssen Pharmaceutica NV, priority 2004, dated 2010).

In one test the target is T1, CCK-1 receptor (Homo sapiens, UniProt P32238).
T1 construct: expressed in transfected cells; host or cells: CHO-K1
T1 sequence (P32238 1-428): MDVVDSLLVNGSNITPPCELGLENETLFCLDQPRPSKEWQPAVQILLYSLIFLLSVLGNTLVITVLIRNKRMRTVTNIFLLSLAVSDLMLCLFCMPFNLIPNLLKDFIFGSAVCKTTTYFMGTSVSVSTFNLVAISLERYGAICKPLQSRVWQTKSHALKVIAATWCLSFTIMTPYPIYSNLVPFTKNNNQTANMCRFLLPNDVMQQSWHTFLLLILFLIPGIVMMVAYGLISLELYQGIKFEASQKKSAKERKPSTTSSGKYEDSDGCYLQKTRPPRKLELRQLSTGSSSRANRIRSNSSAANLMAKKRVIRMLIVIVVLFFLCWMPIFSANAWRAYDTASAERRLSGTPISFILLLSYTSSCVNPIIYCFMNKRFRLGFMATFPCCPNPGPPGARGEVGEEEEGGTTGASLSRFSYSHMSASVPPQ
The experiment in a line: CCK1 binding assay ([125I]-BH-CCK-8S displacement, CHO-K1 membranes). The note with it: membranes of CHO-K1 cells stably transfected with the CCK-1 receptor, 20 pM [125I]-BH-CCK-8S, 0.3 μM PD-134,308 present, 60 min at 21±3° C.; for Ki: read-out: CCK1 pKi (converted). The gist of the method:
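Membranes from CHO-K1 cells stably expressing CCK-1 incubated 1 h at 21±3° C with 20 pM [125I]-BH-CCK-8S in HEPES buffer pH 7.2 containing 0.3 μM PD-134,308 to block CCK-2. Bound radioactivity read by gamma counting after filtration. pKi derived via Cheng-Prusoff, with specific binding defined using 2-NAP.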

The target in the next test is T2, CCK2 receptor (Homo sapiens, UniProt P32239).
T2 construct: analyzed for ZFP expression as well as CCK2R induction upon addition of doxycycline to the culture medium; endogenous in cells
T2 sequence (P32239 1-447): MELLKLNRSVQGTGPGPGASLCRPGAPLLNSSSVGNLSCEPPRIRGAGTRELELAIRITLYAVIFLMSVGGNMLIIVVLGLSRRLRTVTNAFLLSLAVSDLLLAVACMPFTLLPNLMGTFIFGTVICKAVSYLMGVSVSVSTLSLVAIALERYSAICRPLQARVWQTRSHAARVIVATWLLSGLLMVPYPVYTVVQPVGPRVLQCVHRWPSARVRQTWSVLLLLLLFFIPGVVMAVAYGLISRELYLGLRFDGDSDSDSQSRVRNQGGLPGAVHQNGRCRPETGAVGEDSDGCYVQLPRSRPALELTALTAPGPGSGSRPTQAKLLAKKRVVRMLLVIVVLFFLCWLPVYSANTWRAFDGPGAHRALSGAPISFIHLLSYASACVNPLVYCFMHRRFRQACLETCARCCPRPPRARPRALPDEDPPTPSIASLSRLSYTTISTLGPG
The test can be described thus: CCK2 binding assay ([125I]-BH-CCK-8S displacement, HEKZFP membranes). Conditions: membranes of doxycycline-induced HEKZFP cells, 20 pM [125I]-BH-CCK-8S, 60 min at 21±3° C.; for Ki: read-out: CCK2 pKi (converted).

With `COC(=O)[C@H](Cc1ccc(Cl)cc1)NC(=O)c1ccc(Cl)cc1NS(=O)(=O)c1ccc(F)cc1F` [Example 71, (S)-2-[4-Chloro-2-(2,4-difluoro-benzenesulfonylamino)-benzoylamino]-3-(4-chloro-phenyl)-propionic acid methyl ester], the Ki is 126 nM at CCK-1 receptor and 2510 nM on CCK2 receptor.

Consider `COC(=O)[C@H](Cc1ccc(F)c(Br)c1)NC(=O)c1cc(Cl)c(Cl)cc1NS(=O)(=O)c1cccc2nccnc12` [Example 153, (S)-3-(3-Bromo-4-fluoro-phenyl)-2-[4,5-dichloro-2-(quinoxaline-5-sulfonylamino)-benzoylamino]-propionic acid methyl ester], for which the “CCK1 pKi” value on CCK-1 receptor is 6.7. In addition, the “CCK2 pKi” value at CCK2 receptor worked out at 6.6.

For the compound `COC(=O)[C@H](Cc1ccc(Cl)c(Br)c1)NC(=O)c1ccc(I)cc1NS(=O)(=O)c1cccc2nsnc12` [Example 122, (S)-2-[2-(Benzo[1,2,5]thiadiazole-4-sulfonylamino)-4-iodo-benzoylamino]-3-(3-bromo-4-chloro-phenyl)-propionic acid methyl ester], the Ki was 158 nM at CCK-1 receptor and 398 nM on CCK2 receptor.

Consider `CC(CNC(=O)c1ccc(Br)cc1NS(=O)(=O)c1cccc2nsnc12)c1ccccc1` (stereo not drawn) [Example 31, 2-(Benzo[1,2,5]thiadiazole-4-sulfonylamino)-4-bromo-N-(2-phenyl-propyl)-benzamide], for which the “CCK1 pKi” value at CCK-1 receptor was determined as 7.1. The “CCK2 pKi” value at CCK2 receptor is reported as 6.2.

Turning to `O=C(N[C@@H](Cc1cccc(Br)c1)C(=O)O)c1ccc(I)cc1NS(=O)(=O)c1cccc2nsnc12` [Example 4, (S)-2-[2-(Benzo[1,2,5]thiadiazole-4-sulfonylamino)-4-iodo-benzoylamino]-3-(3-bromo-phenyl)-propionic acid], the Ki is 631 nM at CCK-1 receptor and 5.01 nM on CCK2 receptor.

With `O=C(N[C@@H](Cc1ccc(Cl)c(Br)c1)C(=O)O)c1ccc(I)cc1NS(=O)(=O)c1cccc2nsnc12` [Example 91, (S)-2-[2-(Benzo[1,2,5]thiadiazole-4-sulfonylamino)-4-iodo-benzoylamino]-3-(3-bromo-4-chloro-phenyl)-propionic acid], the Ki at CCK-1 receptor is 79.4 nM; on CCK2 receptor, 15.8 nM.

As to `CC(CNC(=O)c1ccc(I)cc1NS(=O)(=O)c1cccc2nccnc12)c1ccc(Cl)c(Cl)c1` (stereo not drawn) [Example 40, N-[2-(3,4-Dichloro-phenyl)-propyl]-4-iodo-2-(quinoxaline-5-sulfonylamino)-benzamide], the Ki on CCK-1 receptor was 126 nM; on CCK2 receptor, 316 nM.

On to `CC(C)(c1ccc(Cl)cc1)[C@H](NC(=O)c1ccc(I)cc1NS(=O)(=O)c1cccc2nsnc12)C(=O)O` [Example 95, (S)-2-[2-(Benzo[1,2,5]thiadiazole-4-sulfonylamino)-4-iodo-benzoylamino]-3-(4-chloro-phenyl)-3-methyl-butyric acid], for which the Ki is 3160 nM on CCK-1 receptor and 794 nM on CCK2 receptor.

On to `COC(=O)[C@H](Cc1ccc(F)c(Br)c1)NC(=O)c1ccc(I)cc1NS(=O)(=O)c1c(F)cccc1F` [Example 125, (S)-3-(3-Bromo-4-fluoro-phenyl)-2-[2-(2,6-difluoro-benzenesulfonylamino)-4-iodo-benzoylamino]-propionic acid methyl ester], for which the Ki is 316 nM at CCK-1 receptor and 631 nM at CCK2 receptor.

For `COC(=O)[C@H](Cc1ccc(Cl)c(Br)c1)NC(=O)c1ccc(Br)cc1NS(=O)(=O)c1cccc2nsnc12` [Example 142, (S)-2-[2-(Benzo[1,2,5]thiadiazole-4-sulfonylamino)-4-bromo-benzoylamino]-3-(3-bromo-4-chloro-phenyl)-propionic acid methyl ester], the values for the Ki at CCK-1 receptor and at CCK2 receptor were 158 nM and 631 nM, respectively.

Turning to `CC(CNC(=O)c1ccc(Br)cc1NS(=O)(=O)c1c(F)cccc1F)c1ccc(Cl)cc1` (stereo not drawn) [Example 24, 4-Bromo-N-[2-(4-chloro-phenyl)-propyl]-2-(2,6-difluoro-benzenesulfonylamino)-benzamide], the Ki is 100 nM on CCK-1 receptor and 1260 nM on CCK2 receptor.

`CC(Cc1ccc(Cl)cc1)NC(=O)c1ccc(C(F)(F)F)cc1NS(=O)(=O)c1cccc2nsnc12` (stereo not drawn) [Example 22, 2-(Benzo[1,2,5]thiadiazole-4-sulfonylamino)-N-[2-(4-chloro-phenyl)-1-methyl-ethyl]-4-trifluoromethyl-benzamide]: the Ki at CCK-1 receptor was 501 nM; at CCK2 receptor, 631 nM.

As for `O=C(O)C[C@@H](Cc1ccc(Cl)c(Cl)c1)NC(=O)c1ccc(Cl)cc1NS(=O)(=O)c1cccc2nccnc12` [Example 82, (R)-3-[4-Chloro-2-(quinoxaline-5-sulfonylamino)-benzoylamino]-4-(3,4-dichloro-phenyl)-butyric acid], the Ki on CCK-1 receptor was 794 nM; on CCK2 receptor, 7940 nM.

Consider `O=C(N[C@@H](Cc1ccc(Cl)c(Br)c1)C(=O)O)c1ccc(Cl)cc1NS(=O)(=O)c1cccc2nsnc12` [Example 145, (S)-2-[2-(Benzo[1,2,5]thiadiazole-4-sulfonylamino)-4-chloro-benzoylamino]-3-(3-bromo-4-chloro-phenyl)-propionic acid], for which the “CCK1 pKi” value on CCK-1 receptor is on record as 6.7. In addition, the “CCK2 pKi” value on CCK2 receptor is listed as 7.4.

With `O=C(N[C@@H](Cc1ccc(F)c(Br)c1)C(=O)O)c1ccc(I)cc1NS(=O)(=O)c1cccc2nccnc12` [Example 126, (S)-3-(3-Bromo-4-fluoro-phenyl)-2-[4-iodo-2-(quinoxaline-5-sulfonylamino)-benzoylamino]-propionic acid], the results for the Ki at CCK-1 receptor and at CCK2 receptor were 251 nM and 5.01 nM, respectively.

Turning to `O=C(N[C@@H](Cc1ccc(F)c(Br)c1)C(=O)O)c1ccc(I)cc1NS(=O)(=O)c1c(F)cccc1F` [Example 127, (S)-3-(3-Bromo-4-fluoro-phenyl)-2-[2-(2,6-difluoro-benzenesulfonylamino)-4-iodo-benzoylamino]-propionic acid], the figures for the Ki on CCK-1 receptor and on CCK2 receptor were 200 nM and 79.4 nM, respectively.

As for `O=C(N[C@@H](Cc1ccc(F)cc1)C(=O)O)c1ccc(Cl)cc1NS(=O)(=O)c1cccc2nsnc12` [Example 76, (S)-2-[2-(Benzo[1,2,5]thiadiazole-4-sulfonylamino)-4-chloro-benzoylamino]-3-(4-fluoro-phenyl)-propionic acid], the Ki on CCK-1 receptor was 3160 nM; at CCK2 receptor it was 39.8 nM.

`COC(=O)[C@H](Cc1ccc(F)c(Br)c1)NC(=O)c1ccc(I)cc1NS(=O)(=O)c1cccc2nccnc12` [Example 124, (S)-3-(3-Bromo-4-fluoro-phenyl)-2-[4-iodo-2-(quinoxaline-5-sulfonylamino)-benzoylamino]-propionic acid methyl ester]: the Ki is 316 nM on CCK-1 receptor and 50.1 nM at CCK2 receptor.

Take `C[C@@H](NC(=O)c1ccc(Cl)cc1NS(=O)(=O)c1cccc2nsnc12)[C@@H](O)c1ccccc1` [Example 49, 2-(Benzo[1,2,5]thiadiazole-4-sulfonylamino)-4-chloro-N-((2S,1R)-2-hydroxy-1-methyl-2-phenyl-ethyl)-benzamide]: the Ki at CCK-1 receptor is 200 nM; at CCK2 receptor it was 2000 nM.

Turning to `O=C(N[C@@H](Cc1ccc(Cl)c(Cl)c1)C(=O)NCc1cccc(Cl)c1)c1ccc(Cl)cc1NS(=O)(=O)c1cccc2nsnc12` [Example 128, (S)-2-(Benzo[1,2,5]thiadiazole-4-sulfonylamino)-4-chloro-N-[1-(3-chloro-benzylcarbamoyl)-2-(3,4-dichloro-phenyl)-ethyl]-benzamide], the Ki on CCK-1 receptor was 100 nM; at CCK2 receptor, 631 nM.

On to `O=C(N[C@@H](Cc1ccc(Cl)cc1Cl)C(=O)O)c1ccc(Br)cc1NS(=O)(=O)c1c(F)cccc1F` [Example 41, 2-[4-Bromo-2-(2,6-difluoro-benzenesulfonylamino)-benzoylamino]-3-(2,4-dichloro-phenyl)-propionic acid], for which the Ki on CCK-1 receptor was 631 nM; at CCK2 receptor, 50.1 nM.
